Patent US12521439B2, “Methods and materials for modulating Nrf2 pathway” (The General Hospital Corporation, priority 2019, dated 2026)
“Also recorded” adds a separate entry of the source. Where a name gives a salt, the structure may show the parent alone.

Columns and labels:
[1] = Solubility in aqueous media; format: physicochemical
U87 glioma cells = assay: Cell viability (CellTiter-Glo), U87; format: cell-based, human; details: for U87 cell viability: same doses as ARE test, FIG. 12D
Method: Cell culture: MDA-MB-231 and U87 (U87-MG) cells were obtained from the American Type Culture Collection (ATCC). 293T human embryonic kidney fibroblasts were provided by Dr. Xandra Breakefield (Massachusetts General Hospital). All three cell lines were grown in Dulbecco's modified Eagle medium supplemented with 10% fetal bovine serum (Gemini Bio-products), 100 U penicillin, and 0.1 mg/mL streptomycin (Sigma). All cells were maintained at 37° C. in a humidified 5% CO2 incubator. GSCs were obtained from tumor tissues of GBM patients following surgical resection, under approval from the corresponding Institutional Review Board. These cells have been previously characterized (ref. 37-39) and were maintained in culture as neurospheres in Neurobasal medium (Gibco) supplemented with heparin (2 μg/mL; Sigma) and recombinant EGF (20 ng/mL) and bFGF-2 (10 ng/mL; Peprotech). Human Astrocytes were obtained from ScienCell and cultured in Astrocytes Medium (ScienCell)
(§1) Cell viability: Cells were plated in 96-well plates and treated with the corresponding compounds. Cell viability was measured by adding 25 μl/well of CellTiter-Glo (Promega) followed by 10 minutes incubation and transfer to a white 96-well plate. Bioluminescence was quantified using Synergy HTX multimode reader (Biotek).

ARE (Nrf2 pathway) = assay: ARE-Gluc luciferase reporter (normalized to SV40-Vluc); format: cell-based, human; details: for ARE activity: U87, CINN 100, FUM 50 μM, SULF 5 μM, FIG. 12C
Source text: DNA expression constructs: ARE reporter was designed and generated based on our previously published reporter for monitoring of the transcription factor Nuclear Factor Kappa B (NFkB). NFkB TRE elements were removed and replaced with four copies of the ARE enhancer sequence. This reporter consists of a CSCW lentivirus vector in which we have introduced two copies of the 1.2 kb chicken beta-globin (HS4) insulator elements, a TATA box acting as a minimal promoter upstream of the secreted Gaussia luciferase (Gluc). pcDNA3-HA2-Keap1 (Addgene plasmid #21556) and pcDNA3-HA2-Keap1 delta BTB (Addgene plasmid #21593) were a gift from Yue Xiong^2. pHAGE DN Cullin 3 (DN-CUL3) was a gift from Stephen Elledge (Addgene plasmid #41913). Constructs expressing constitutively active Gluc, Firefly luciferase (Fluc) and Vargula luciferase (Vluc) were previously describe. MISSION shRNA Bacterial Glycerol Stocks for Keap1 as well as a non-target shRNA were obtained from Sigma. Transfection of plasmid DNA was performed using Lipofectamine 2000 (Invitrogen) as per manufacturer's guidelines. Lentivirus packaging and titration was performed in 293T cells by the MGH viral vector core facility following standard protocols. Keap1 mutant C151S plasmid was kindly provided by Dr. Wooyoung Hur.
Luciferase assay: Coelenterazine (20 μM; Nanolight), The Gluc substrate was added to a 25 μL aliquot of conditioned medium and photon counts were measured using a luminometer. Similarly, the secreted Vluc activity was measured by adding its substrate vargulin (5 ng/mL; Nanolight). Cells stably expressing Gluc under the ARE enhancer sequence and Vluc under the constitutively active SV40 minimal promoter were used to determine the ARE reporter activity. The normalized Gluc/Vluc ratio was used as a marker for ARE activation.

BRD4 [2] = target: T1, BRD4 (Mus musculus, UniProt Q9ESU6); assay: BRD4 degradation in mouse glioma model in vivo (Western blotting); parameters: species or system mice; details: CT2A glioma; intratumoral, intravenous and intranasal routes; 24 hrs after last injection
T1 construct: CT2A glioma cells expressing mCherry fluorescent protein were implanted in the brain of mice; from tissue; host or cells: CT2A glioma tumour removed from mouse brain
Method: CT2A glioma cells expressing mCherry fluorescent protein were implanted in the brain of mice and 2 weeks later, once tumor reached a significant size, mice were injected with 0.7 mg/kg body weight of OBT-JQ1 using different injection routes (1) direct intratumoral injection (single injection), intravenously (once/day over 3 days) and intranasally (once/day over 3 days, an injection route that typically bypasses the blood-brain barrier). 24 hrs after the last injection, brains were removed and the tumor was lysed and analyzed by Western blotting for BRD4 and mCherry and actin loading controls.

BRD4 [3] = target: T2, BRD4 (Homo sapiens, UniProt O60885); assay: OBT-JQ1 PROTAC mechanism (proteasome block, Keap1/CUL3 knockdown); format: cell-based; parameters: endogenous in cells
Method: (§2) Immunoblotting and Immunoprecipitation analysis: Antibodies against PDI, GAPDH, HA-tag, Ubiquitin, Keap1 and beta-actin (Cell Signaling) as well as secondary Horseradish peroxidase (HRP) conjugated antibodies: sheep anti-mouse IgG-HRP and donkey antirabbit IgG-HRP (Amersham Pharmacia Biotech) were used in this study. For protein expression analysis, cells were lysed in RIPA buffer (150 mM NaCl, 50 mM TRIS, pH 8.0, 1% NP-40, 0.5% deoxycholate, 0.1% SDS) supplemented with 1× protease inhibitors cocktail (Roche). Proteins were quantified using a Bradford protein determination assay (Bio-Rad) followed by electrophoresis in 10% NuPAGE Bis-Tris gels (Life Technologies) and transfer to nitrocellulose membranes (Bio-Rad). Membranes were incubated overnight with antibodies in 1-5% non-fat milk powder in PBS/0.5% TWEEN. Proteins were detected with SuperSignal West Pico Chemiluminescent Substrate (Pierce). For immunoprecipitation assays, cells were lysed in RIPA buffer supplemented with protease inhibitors and 2 mM N-ethylmaleimide. Cell lysates were pre-cleared with protein A agarose beads (Cell Signaling) and incubated with anti-HA antibody with gentle rocking overnight at 4° C. followed by incubation with protein A agarose beads and subsequent washing and elution steps. Electrophoresis, transfer and immunoblot analysis was performed as described above.

BRD4 [4] = target: T2, BRD4; assay: BRD4 degradation in patient-derived glioma cells; format: cell-based; parameters: endogenous in cells; host or cells: patient-derived glioma cells; patient-derived breast cancer cells; details: FIG. 17
Method: as §2

BRD4 [5] = target: T2, BRD4; assay: BRD4 degradation in patient-derived breast cancer cells; format: cell-based; parameters: endogenous in cells; host or cells: patient-derived glioma cells; patient-derived breast cancer cells; details: FIG. 18
Method: as §2

cancer cells = assay: Cancer cell death with OBT, JQ1, OBT-JQ1; format: cell-based; details: FIG. 23
Method: as §1

BRD4 [6] = target: T2, BRD4; assay: BRD4 degradation in breast cancer cells; format: cell-based; parameters: endogenous in cells; details: FIG. 16
Method: as §2

BRD4 [7] = target: T2, BRD4; assay: BRD4 degradation in glioma cells; format: cell-based; parameters: endogenous in cells; details: FIG. 15
Method: as §2

## COc1cc(O)c(O)cc1C(/C=C/c1ccccc1)SCCO (stereo not drawn) [AF20a, (E)-4-(1-((2-hydroxyethyl)thio)-3-phenylallyl)-5-methoxybenzene-1,2-diol]
[1]
  solubility compared to OBT: overcome the limited solubility of OBT

## COc1cc(O)c(O)cc1/C=C/C(SCCO)c1ccccc1 (stereo not drawn) [AF20b, (E)-4-(3-((2-hydroxyethyl)thio)-3-phenylprop-1-en-1-yl)-5-methoxybenzene-1,2-diol]
[1]
  solubility compared to OBT: overcome the limited solubility of OBT

## COC(=O)[C@]12CCC(C)(C)C[C@H]1[C@H]1C(=O)C=C3[C@@]4(C)C=C(C#N)C(=O)C(C)(C)[C@@H]4CC[C@@]3(C)[C@]1(C)CC2 [CDDO-Me, 2-cyano-3,12-dioxoolean-1,9-dien-28-oic acid-methyl ester]
U87 glioma cells; higher doses, U87 cells, FIG. 12B
  cell viability: marked decrease
ARE (Nrf2 pathway); U87 and MDA-MB-231 cells, FIG. 12A
  ARE-Gluc reporter activity: increased reporter activity

## COC1=CC(=O)C(OCC(=O)NCCCOCCOCCOCCCNC(=O)CC2N=C(c3ccc(Cl)cc3)c3c(sc(C)c3C)-n3c(C)nnc32)=C/C1=C/C=C/c1ccccc1 (stereo not drawn) [OBT-JQ1, 2-(4-(4-chlorophenyl)-2,3,9-trimethyl-6H-thieno[3,2-f][1,2,4]triazolo[4,3-a][1,4]diazepin-6-yl)-N-(1-(((Z)-4-methoxy-6-oxo-3-((E)-3-phenylallylidene)cyclohexa-1,4-dien-1-yl)oxy)-2-oxo-7,10,13-trioxa-3-azahexadecan-16-yl)acetamide]
BRD4 [2]
  BRD4 degradation in brain tumors: induces BRD4 degradation; also recorded: efficient BRD4 degradation
BRD4 [3]; FIG. 20
  effect of OBT-JQ1 when proteasome is blocked: reverses the effect
BRD4 [3]; FIG. 21
  PROTAC activity in Keap1 and CuL3 knockdown: retains PROTAC activity
BRD4 [4]
  BRD4 degradation: promotes targeted degradation of BRD4
BRD4 [5]
  BRD4 degradation: promotes targeted degradation of BRD4
Cancer cells
  induced cell death in presence of antioxidant NAC: not protected
BRD4 [6]
  BRD4 degradation: promotes targeted degradation of BRD4
BRD4 [7]
  BRD4 degradation: promotes targeted degradation of BRD4

## O=CC=Cc1ccccc1 [cinnamaldehyde]
U87 glioma cells
  U87 cell viability: moderate decrease
ARE (Nrf2 pathway)
  ARE activity: increased ARE activity

## CCOC(=O)/C=C/C(=O)OCC [diethyl fumarate]
U87 glioma cells
  U87 cell viability: moderate decrease
ARE (Nrf2 pathway)
  ARE activity: increased ARE activity

## C[S+]([O-])CCCCN=C=S (stereo not drawn) [sulforaphane]
U87 glioma cells
  U87 cell viability: moderate decrease
ARE (Nrf2 pathway)
  ARE activity: increased ARE activity
